ChEMBL document CHEMBL1138599, “Conjugation with alpha-linolenic acid improves cancer cell uptake and cytotoxicity of doxorubicin” (Bioorg Med Chem Lett, 2009)

Key:
[1] = test system: MDA-MB-231; assay: Cytotoxicity against human MDA-MB-231 cells MTT assay; assay type: functional, cell-based
[2] = test system: MDA-MB-231; assay: Drug uptake in human MDA-MB-231 cells by flow cytometry; assay type: ADME, cell-based
[3] = test system: MCF7; assay: Cytotoxicity against human MCF7 cells by MTT assay; assay type: functional, cell-based
[4] = test system: HepG2; assay: Cytotoxicity against human HepG2 cells MTT assay; assay type: functional, cell-based
[5] = test system: MCF7; assay: Drug uptake in human MCF7 cells by flow cytometry; assay type: ADME, cell-based

Row | SMILES | IC50 [1] [µM] | Drug uptake [2] | IC50 [3] [µM] | IC50 [4] [µM] | Drug uptake [5]
1 | CC/C=C\C/C=C\C/C=C\CCCCCCCC(=O)N[C@H]1C[C@H](O[C@H]2C[C@](O)(C(=O)CO)Cc3c(O)c4c(c(O)c32)C(=O)c2c(OC)cccc2C4=O)O[C@@H](C)[C@H]1O | 3.1 | Dose-dependent effect | 4.7 | 6.8 | Dose-dependent effect
2 | COc1cccc2c1C(=O)c1c(O)c3c(c(O)c1C2=O)C[C@@](O)(C(=O)CO)C[C@@H]3O[C@H]1C[C@H](N)[C@H](O)[C@H](C)O1 [DOXORUBICIN] | 10.2 | Dose-dependent effect |  | 14.3 | Dose-dependent effect
